The values that follow are results of earlier work, collected in patent publication US11318114B2, “Water dispersible mini-tablets comprising Enalapril for treatment of hypertension in a pediatric population and method of preparation thereof” (PHARMATHEN S.A., priority 2014, dated 2022).

In brackets after ≈: the same amount, converted by molar mass. Where a name gives a salt, the structure may show the parent alone. Read-outs that look alike come from different tables or passages of the source.

Regarding `CCOC(=O)[C@H](CCc1ccccc1)N[C@@H](C)C(=O)N1CCC[C@H]1C(=O)O` [Enalapril maleate], the Solubility entry is, setting by setting: (alcohol) “soluble”; (dimethylformamide) “freely soluble”; (methanol) “freely soluble”; (nonpolar organic solvents) “practically insoluble”; (semi polar organic solvents) “slightly soluble”; (water) “sparingly soluble”.

As for `CCOC(=O)[C@H](CCc1ccccc1)N[C@@H](C)C(=O)N1CCC[C@H]1C(=O)O` [Enalapril, (2S)-1-{[92S0-1-ethoxy-1-oxo-4phenylbutan-2-yl]amino}pyrrolidine-2carboxylic acid], the Solubility in water (water) is 25 mg/mL (≈ 66.4 mM).
